Data from US20260248763A1 (BIO GENUINE (SHANGHAI) BIOTECH CO., LTD, priority 2023, published 2026).
Like-named read-outs stand apart in the source and are kept apart here.

Columns and labels:
OTR = target: T1, OTR (Homo sapiens, UniProt P30559); test: Ca2+ mobilization in cells stably expressing OTR (FLIPR, antagonist mode); type: cell-based; conditions: OTR/HEK293 stably transfected cell line
T1 construct: expressed in transfected cells; host or cells: OTR/HEK293 stably transfected cell line
T1 sequence (P30559 1-389): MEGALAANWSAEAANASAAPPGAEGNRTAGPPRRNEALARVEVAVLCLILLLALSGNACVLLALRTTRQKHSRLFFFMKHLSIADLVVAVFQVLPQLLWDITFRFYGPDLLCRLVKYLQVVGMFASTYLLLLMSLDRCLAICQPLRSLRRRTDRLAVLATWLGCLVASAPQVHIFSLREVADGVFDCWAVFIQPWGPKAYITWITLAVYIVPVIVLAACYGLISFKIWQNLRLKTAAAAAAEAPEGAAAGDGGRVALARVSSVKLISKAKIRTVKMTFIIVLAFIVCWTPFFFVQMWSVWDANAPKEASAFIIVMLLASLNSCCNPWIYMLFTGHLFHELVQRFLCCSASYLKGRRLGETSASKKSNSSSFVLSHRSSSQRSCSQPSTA
Method in brief: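 Antagonist mode: test compounds in 10-point 3-fold series were added on FLIPR to Fluo-4-loaded HEK293 cells stably expressing OTR, followed by reference agonist at its EC80, determined beforehand. The Max-Min calcium fluorescence response was fitted in Prism.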

[1] = Pharmacokinetic determination in SD rats; type: in vivo; conditions: rat, female SD rats, plasma; for AUC(0-t): read-out: Area under the curve AUC0-t; for clearance: read-out: Clearance Cl; for half-life: read-out: Half-life T1/2 (converted)
Experimental: Test Example 3: Pharmacokinetic Determination in SD Rats
In this study, female SD rats were selected as test animals. The LC/MS/MS method was used to quantitatively determine the plasma drug concentrations of the test compounds at different time points after intravenous injection (2 mg/kg) or oral administration (5 mg/kg) in rats, so as to evaluate the pharmacokinetic profile of the test drugs in rats.
The example compounds of the present disclosure, made in house.
SD rats (female, 180-220 g, 6-8 weeks old, purchased from Beijing Vital River Laboratory Animal Technology Co., Ltd., with animal production license number SCXK (Beijing) 2021-0006).
Vehicle for intravenous administration: 5% DMSO+10% Solutol+85% Saline.
Vehicle for oral administration: 5% DMSO+95% PEG400.
The test compound, formulated as a clear solution or suspension, was administered to overnight-fasted SD rats via tail vein injection or oral gavage. For intravenous administration, blood samples (0.25 mL) were collected via jugular vein puncture at pre-dose (0 h) and 0.083, 0.25, 0.5, 1, 2, 4, 6, 8, and 24 h post-dose. The samples were placed into sodium heparin anticoagulant tubes, and the mixture was vortexed thoroughly and centrifuged at 6,000 rpm for 3 minutes at 4° C. For oral gavage, blood samples were collected via jugular vein puncture at pre-dose (0 h) and 0.083, 0.25, 1, 2, 4, 6, 8, and 24 h post-dose. The samples were placed into sodium heparin anticoagulant tubes, and the mixture was vortexed thoroughly and centrifuged at 6,000 rpm for 3 minutes. Plasma drug concentrations were determined using the LC-MS/MS method, and the relevant pharmacokinetic parameters were calculated using the non-compartmental model with linear-log trapezoidal method in Phoenix WinNonlin 8.2.0 pharmacokinetic software.

IC50 (OTR) [µM] | AUC(0-t) ([1]; 2 mg/kg, IV (2 mpk)) [µg·h/mL] | AUC(0-t) ([1]; 5 mg/kg, PO (5 mpk)) [µg·h/mL] | clearance ([1]; 2 mg/kg, IV (2 mpk)) [L/h/kg] | half-life ([1]; 2 mg/kg, IV (2 mpk)) [h] | half-life ([1]; 5 mg/kg, PO (5 mpk)) [h] | Structure (SMILES)
0.00751 | – | – | – | – | – | CO/N=C1/C[C@@H]([C@@H](C)O)N(C(=O)c2ccc(-c3cccc(C#N)c3C)cc2)C1 (single isomer, unassigned) [Example C0112]
0.0208 | 7.16 | 16 | 0.28 | 5.23 | 5.97 | CO/N=C1/C[C@@H](CO)N(C(=O)c2ccc(-c3cccc(C#N)c3Cl)cc2)C1 [Example A0203, 2-Chloro-3-(4-[(2S, 4Z)-2-(hydroxymethyl)-4-(methoxyimino)pyrrolidine-1-carbonyl]phenyl)benzonitrile]

The remaining lines, values behind:

Structure (SMILES) | IC50 (OTR) [µM] | AUC(0-t) ([1]; 2 mg/kg, IV (2 mpk)) [µg·h/mL] | AUC(0-t) ([1]; 5 mg/kg, PO (5 mpk)) [µg·h/mL] | clearance ([1]; 2 mg/kg, IV (2 mpk)) [L/h/kg] | half-life ([1]; 2 mg/kg, IV (2 mpk)) [h] | half-life ([1]; 5 mg/kg, PO (5 mpk)) [h]
CON=C1CC(CO)N(C(=O)c2ccc(-c3cccc(C#N)c3C)c3c2OCO3)C1 (single isomer, unassigned) [Example C0099] | 0.0175 | – | – | – | – | –
CO/N=C1/C[C@@H](CO)N(C(=O)c2ccc(-c3cccc(C#N)c3C)cc2)C1 [Example C0058, (S, Z)-4′-(2-(Hydroxymethyl)-4-(methoxyimino)pyrrolidine-1-carbonyl)-2-methyl-[1,1′-biphenyl]-3-carbonitrile] | 0.0177 | 4.64 | 11.4 | 0.444 | 3 | 3.11
CO/N=C1/C[C@@H](CO)N(C(=O)c2ccc(-c3cc(F)cc(C#N)c3C)c3c2OCCO3)C1 [Example C0152, (S,Z)-5-Fluoro-3-(8-(2-(hydroxymethyl)-4-(methoxyimino)pyrrolidine-1-carbonyl)-2,3-dihydrobenzo[b][1,4]dioxin-5-yl)-2-methylbenzonitrile] | 0.00663 | – | – | – | – | –
